According to paper PMC5133935, “Hydrostatin-TL1, an Anti-Inflammatory Active Peptide from the Venom Gland of Hydrophis cyanocinctus in the South China Sea” (International Journal of Molecular Sciences, 2016):
Entries after “also recorded” stand apart in the source; their conditions may differ. No end group written: not given here.

Experiments:
[1] = test system: mRNA expression of pro-inflammatory cytokines in colon tissue of DSS mice; experiment: Real-time PCR, cytokine mRNA in DSS-induced colitis; assay type: in vivo, mouse; details: H-TL1 1 mg/kg; DSS induced 1.73- to 41-fold increases; n = 3
Procedure: Total RNA was extracted from colon tissue specimens or cells using Trizol reagent (Takara) according to the manufacturer’s instructions and was then reverse transcribed using random primers. Real-time PCR was performed on a StepOne Real-Time PCR System (Applied Biosystems, Foster City, CA, USA) to analyze the mRNA expression levels of IL-8, TNF-α, IL-1β, IL-6, VCAM-1, and ICAM-1. The relative fold changes of target gene expression were comparatively quantified by the 2^−ΔΔCt method. GAPDH was chosen as the internal control gene, and samples without treatment were designated as the comparing reference. Primers used in this study were based on published sequences.
(§1) To induce colitis, 6–8 week old male BALB/c mice were administered 2.5% DSS solution in their drinking water for 7–8 consecutive days, ad libitum. Importantly, 30–40 kDa DSS was used to establish the animal model in this study because it is known to induce more severe colitis than 5 and 500 kDa DSS [37]. The mice were concomitantly administered H-TL1 (0.5 or 1 mg/kg) once daily for 7–8 consecutive days by intraperitoneal injection. Establishment of the DSS-induced colitis was evidenced by an increase in DAI, with associated weight loss, loose stool consistency, and presence of blood in the feces. DAI was monitored during the entire experiment and was assessed according to the method described in Table 1.

[2] = test system: DSS-induced inflammation of colonic mucosa, BALB/c mice; experiment: Colon histopathology in DSS-induced colitis; assay type: in vivo, mouse; details: for colon morphology (H&E): H&E 40×
Procedure: as §1
The colonic tissue samples were fixed in 4% neutral formalin, dehydrated with increasing concentrations of ethanol, embedded in paraffin, and subsequently cut into 5-μm thick sections, which were mounted on slides, cleared, hydrated, and stained with hematoxylin and eosin (H&E). Histological grading was assessed according to previously described criteria (Table 2), and the scoring criteria used were similar to those described previously.

[3] = test system: LPS-induced lung tissue damage, C57BL/6 mice; experiment: Lung histopathology in LPS-induced acute shock; assay type: in vivo, mouse; details: 12 h after LPS; H&E 200×; n = 8
Procedure: The LPS-induced acute shock model was established in male C57BL/6 mice (6–8 weeks old) that were randomly allocated to five groups. LPS was administered (15 mg/kg body weight) to induce acute shock. The LPS- or normal saline-treated mice were injected with 100 μL of normal saline with or without LPS intraperitoneally, while the H-TL1 and LPS-treated mice were each administered H-TL1 at three doses of 20, 40, and 80 μg/kg 1, 3, and 5 h after the LPS injection (Figure 5A). The mice were observed every 4 h to evaluate mortality.
To assess lung damage, lung tissues were excised, inflated with 4% neutral formalin, and H&E stained 12 h following LPS injection. The lung parenchyma was examined by light microscopy and graded based on the degree of congestion, edema, inflammation, and hemorrhage. Each characteristic was scored on a scale of 0 to 3 (0, absent; 1, light; 2, moderate; and 3, strong).

L929 cells = experiment: MTT assay, protection from TNF-α-mediated cytotoxicity; assay type: cell-based, mouse; details: H-TL1 1 to 1000 nM; hrTNF-α 20 ng/mL + 0.2 μg/mL actinomycin D; 18–20 h, 37 °C; MTT 490 nm; n = 5
Procedure: We used the L929 cell line, which is commonly chosen by researchers, to evaluate the effects of H-TL1 on TNF-α-mediated cytotoxicity. The cells were treated with TNF-α and 0.2 μg/mL actinomycin D in the presence of graded concentrations of H-TL1. Cell viability was evaluated using MTT assay. […] Furthermore, H-TL1 was not cytotoxic against L929 cells at 100 μM (data not shown), which far exceeds the concentration of H-TL1 used in the in vitro assays.
The H. cyanocinctus specimens were captured during September 2005 in the South China Sea near Guangdong Province, People’s Republic of China. After collection, the snakes were killed, and the venom glands were isolated and immediately frozen in liquid nitrogen until use. HEK-293 human embryonic kidney and L929 mouse fibroblast cell lines were obtained from ATCC and cultured in Dulbecco’s modified Eagle’s medium (DMEM, Sigma-Aldrich, St. Louis, MO, USA) containing 10% (v/v) heat-inactivated fetal bovine serum (FBS, Gibco, BRL, Grand Island, NY, USA) at 37 °C in an atmosphere of 5% CO2. […]
For MTT cell viability assay, L929 cells were seeded onto a 96-well plate and cultured for 12 h. […] Following incubation at 37 °C for 18–20 h, MTT solution was added, followed by incubation at 37 °C for 4 h, and then the absorbance was determined at 490 nm. […]

TNF-α/TNFR1 = experiment: SPR analysis, TNF-α binding to chip-immobilized TNFR1; set-up: species or system human; details: H-TL1 0.5 and 1 μM; hrTNF-α 100 nM; sTNFR1 on CM5 chip, BIAcore T200; 360 s association, 200 s dissociation
Procedure: The T7Select1-2b display vector, T7 select primers, blocking reagent, and elution buffer were purchased from Novagen (Merck, Kenilworth, NJ, USA). […] DSS (36–50 kDa) was bought from MP Biomedicals (Solon, OH, USA). MTT, actinomycin D, and LPS were purchased from Sigma-Aldrich (St. Louis, MO, USA).
sTNFR1 (100 μg/mL) was covalently immobilized onto a CM5 sensor chip by the BIAcore T200 system (Biacore, GE Healthcare) following manufacturer’s instructions. To determine whether H-TL1 inhibits the binding of TNF-α to TNFR1, hrTNF-α was diluted in running buffer at 100 nM with or without different concentrations of H-TL1 (0.1, 0.5, and 1 μM) and subsequently passed over the sTNFR1-immobilized chip for 360 s, followed by dissociation for 200 s. The response unit indicates binding ability.

Substance: ATSKPSLKC-OH [H-TL1]
- mRNA expression of TNF-α, IFN-γ, IL-1β, and IL-6 in DSS colitis [1]: significantly reduced these effects
- colon morphology (H&E) ([2]; H-TL1 0.5 mg/kg, 0.5 mg/kg): serious colonic damage that was comparable to that of the DSS + vehicle-treated mice; also recorded: had little effect on DSS-induced colonic inflammation
- colon morphology (H&E) ([2]; H-TL1 1 mg/kg, 1 mg/kg): remarkably alleviated; also recorded: alleviated DSS-induced colonic inflammation
- total histological score ([2]; H-TL1 1 mg/kg, n = 8, ** p < 0.01 vs. DSS only group): significantly reduces DSS-induced inflammation of colonic mucosa
- lung parenchymal damage and inflammatory cell infiltration [3]: markedly reduced lung parenchymal damage and inflammatory cell infiltration
- inhibition of TNF-α-induced L929 cell death (L929 cells): inhibited TNF-α-induced L929 cell death in a concentration-dependent manner; also recorded: improved survival in TNF-α-treated L929 cells
- attenuation of SPR response of TNF-α to TNFR1 (TNF-α/TNFR1): inhibits the association of TNF-α with sensor chip-immobilized TNFR1; also recorded: the elicited response was markedly attenuated
